Here are results for 1 substance from patent publication US6869929B2, “Use of transcription factors for treating inflammation and other diseases” (Beth Israel Deaconess Medical Center, priority 2000, dated 2005).

What all share (format): cell-based, human
One assay deals with ESE-1. Nature of the assay: ESE-1 mRNA Northern blot in LB-12 osteoblasts. The conditions noted are these: LB-12 cells; 1, 2, 6, 24 hours. Here is the method:
U-87 Mg and U-138 Mg (human glioma), THP-1 (human monocytic), RAW 264.7 (murine monocytic), LB-12 (human osteoblast-like large T antigen transformed bone marrow stromal cells), and human chondrocytes were grown and treated with cytokines as described (Apperley, J., et al. 1990. J Bone Mineral Res. 5:S93; Goldring, M. B., et al. 1994. J Clin Invest 94:2307-16; Goldring, S. R., et al. 1983. J Bone Joint Surg 65:575-84; Libermann, T. A., et al. 1987. Embo J. 6:1627-1632).
Total RNA was harvested using QIAshreder (Qiagen) and RNeasy® Mini Kit (Quiagen) or Trizol (Gibco BRL). Poly A^+ RNA was prepared with MicroPoly(A) Pure (Ambion). Northern blots (5 μg total RNA) were hybridized using a full length ESE-1 cDNA probe as described (Oettgen, P., et al. et al. 1997, Mol Cell Biol 17:4419-33.).
Osteoblasts, the bone cells responsible for bone formation, represent another connective tissue cell target of inflammatory cytokines in joint disorders (Bogoch, E. R., and E. Moran. 1998, Can J Surg 41:264-71). […] LB-12 cells were incubated for different times in the absence or presence of IL-1β. […] Since the rapid, but transient induction of ESE-1 resembles that of immediate early genes, we tested the effect of the protein synthesis inhibitor cycloheximide which superinduces expression of certain genes due to mRNA stabilization. Cycloheximide alone had no effect, but superinduced IL-1β-mediated ESE-1 mRNA expression (FIG. 11d).

Another assay deals with COL2A1 promoter. Nature of the assay: COL2A1 promoter/intron deletion constructs, transient transfection in C-28/I2 cells. To be noted: all five constructs -577, -530, -403, -131, -83/+127 bp, 18 h. Here is the method:
The COL2A1 sequence spanning −577 to +3428 bp (Goldring M B, et al, J Cell Biochem 1994;54:85-99, 39) was cloned into the pGL2-basic (pGL2B) luciferase reporter gene vector (Promega,) and named pGL2-COL2/4.0. Deletion constructs containing −577/+125 bp, −131/+125 bp, −87/+125 bp were prepared by enzyme digestion of pGL2-COL2/4.0 using PstI, ApaI, and PuuII, followed by ligation. For the deletion constructs −45/+125 bp, −83/+7 bp, and −45/+7 bp, PCR products were generated as described (Osaki et al.) and cloned into the pGL2-Basic luciferase vector. These reporter constructs were used as templates to generate point mutations or internal deletions by PCR mutagenesis employing the oligonucleotides listed in FIG. 16 and the QuikChange™ Site-Directed Mutagenesis Kit (Stratagene, La Jolla, Calif.). DNA fragments containing point mutations were then cloned into the pGL2B vector and confirmed by DNA sequencing using a G2 primer on pGL2 DNA. Deletions were also made in the −577/+127 bp COL2A1 promoter construct using the ExSite™ PCR-Based Site-Directed Mutagenesis Kit (Stratagene).
Transient transfection experiments were carried out in C-28/I2 cells using LipofectAMINE PLUS™ Reagent (Life Technologies). Cells were seeded in 6-well tissue culture plates at 3.5×10^5 cells/well in DMEM/F12 containing 10% FCS 24 h prior to transfection. For each well, 1 μg of COL2A1-luciferase construct, 6 μl of PLUS reagent and 92 μl of serum-free DMEM/F12 were mixed and incubated for 15 min at room temperature. LipofectAMINE+ reagent (4 μl) in 100 μl of serum-free medium was then added to each reaction mixture and incubation was continued for an additional 30 min at room temperature. Finally, the transfection mixture was combined with 800 μl of serum-free medium and the lipid-nucleic acid complex was transferred to the washed cell monolayer in each well. After incubation for 4 h at 37° C., the transfection mix was diluted with an equal volume of DMEM/F12 containing 2% Nutridoma-SP, and incubation continued for 18 h in the absence or presence of IL-1β. […] Cell lysates were prepared by extraction with 200 μl of Reporter Lysis Buffer (Promega) and the protein content was determined using the Coomassie Plus Protein Assay Reagent (PIERCE). Luciferase activities were determined by chemiluminescence assay using the Autolumat LB953 luminometer (EG&G Berthold, Oak Ridge, Tenn.), normalized to the amount of protein. Each data point was calculated as the mean±standard deviation for three independently transfected cultures from one representative of at least three experiments. […]
To localize the responses to IL-1β and ESE-1 in the COL2A1 promoter, we made several 5′-deletions of the −577/+127 bp promoter construct, which we had previously determined to be responsive to IL-1β.

In a further assay the test system is COL2A1. Nature of the assay: COL2A1 mRNA time course in C-28/I2 chondrocytes. The conditions noted are these: by 2 h.

With “IL-1β: interleukin-1 beta, proinflammatory cytokine”, the “ESE-1 mRNA expression, agent alone” value in the assay on ESE-1 is reported as “rapidly induced”. Besides, the “inhibition of COL2A1 promoter constructs” value in the assay with COL2A1 promoter is recorded as “at least 50%”. Further, the “COL2A1 mRNA levels” value in the assay on COL2A1 is “strongly inhibited”.
